Reference: US20250340574A1, “MODULATORS OF CYSTIC FIBROSIS TRANSMEMBRANE CONDUCTANCE REGULATOR” (Vertex Pharmaceuticals Incorporated, priority 2022, published 2025)
Read-outs that look alike come from different tables or passages of the source.

Tests used:
[1] = amide bond, 13-membered ring, CDMT/NMM, DMF
[2] = molecular target: T1, CFTR (F508del/MF-HBE cells) (Homo sapiens, UniProt P13569, DEL508-508); test: Ussing chamber assay of CFTR-mediated short-circuit currents, Assay C (0.026 μM to 25 μM, 6 concentrations); format: cell-based; conditions: with 33 nM potentiator and 18 μM Tezacaftor, 20% human serum; for Emax: read-out: C Max activity (%)
T1 construct: human bronchial epithelial (HBE) cells derived from CF subjects heterozygous for F508del and a minimal function CFTR mutation (F508del/MF-HBE); endogenous in cells; host or cells: Primary human bronchial epithelial cells from CF subjects (F508del/MF genotype), differentiated at an air-liquid interface
Procedure, shortened: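 F508del/MF-HBE cells grown at air-liquid interface were incubated 18-24 h at 37 °C in 20% human serum with correctors plus 18 μM tezacaftor and a fixed partner compound (33 nM for concentration series, 44 nM at 1 μM). ISC was read at 0 mV after 20 μM forskolin, minus the post-inhibitor current.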

T1 sequence (P13569 with tags, fused parts or gaps DEL508-508): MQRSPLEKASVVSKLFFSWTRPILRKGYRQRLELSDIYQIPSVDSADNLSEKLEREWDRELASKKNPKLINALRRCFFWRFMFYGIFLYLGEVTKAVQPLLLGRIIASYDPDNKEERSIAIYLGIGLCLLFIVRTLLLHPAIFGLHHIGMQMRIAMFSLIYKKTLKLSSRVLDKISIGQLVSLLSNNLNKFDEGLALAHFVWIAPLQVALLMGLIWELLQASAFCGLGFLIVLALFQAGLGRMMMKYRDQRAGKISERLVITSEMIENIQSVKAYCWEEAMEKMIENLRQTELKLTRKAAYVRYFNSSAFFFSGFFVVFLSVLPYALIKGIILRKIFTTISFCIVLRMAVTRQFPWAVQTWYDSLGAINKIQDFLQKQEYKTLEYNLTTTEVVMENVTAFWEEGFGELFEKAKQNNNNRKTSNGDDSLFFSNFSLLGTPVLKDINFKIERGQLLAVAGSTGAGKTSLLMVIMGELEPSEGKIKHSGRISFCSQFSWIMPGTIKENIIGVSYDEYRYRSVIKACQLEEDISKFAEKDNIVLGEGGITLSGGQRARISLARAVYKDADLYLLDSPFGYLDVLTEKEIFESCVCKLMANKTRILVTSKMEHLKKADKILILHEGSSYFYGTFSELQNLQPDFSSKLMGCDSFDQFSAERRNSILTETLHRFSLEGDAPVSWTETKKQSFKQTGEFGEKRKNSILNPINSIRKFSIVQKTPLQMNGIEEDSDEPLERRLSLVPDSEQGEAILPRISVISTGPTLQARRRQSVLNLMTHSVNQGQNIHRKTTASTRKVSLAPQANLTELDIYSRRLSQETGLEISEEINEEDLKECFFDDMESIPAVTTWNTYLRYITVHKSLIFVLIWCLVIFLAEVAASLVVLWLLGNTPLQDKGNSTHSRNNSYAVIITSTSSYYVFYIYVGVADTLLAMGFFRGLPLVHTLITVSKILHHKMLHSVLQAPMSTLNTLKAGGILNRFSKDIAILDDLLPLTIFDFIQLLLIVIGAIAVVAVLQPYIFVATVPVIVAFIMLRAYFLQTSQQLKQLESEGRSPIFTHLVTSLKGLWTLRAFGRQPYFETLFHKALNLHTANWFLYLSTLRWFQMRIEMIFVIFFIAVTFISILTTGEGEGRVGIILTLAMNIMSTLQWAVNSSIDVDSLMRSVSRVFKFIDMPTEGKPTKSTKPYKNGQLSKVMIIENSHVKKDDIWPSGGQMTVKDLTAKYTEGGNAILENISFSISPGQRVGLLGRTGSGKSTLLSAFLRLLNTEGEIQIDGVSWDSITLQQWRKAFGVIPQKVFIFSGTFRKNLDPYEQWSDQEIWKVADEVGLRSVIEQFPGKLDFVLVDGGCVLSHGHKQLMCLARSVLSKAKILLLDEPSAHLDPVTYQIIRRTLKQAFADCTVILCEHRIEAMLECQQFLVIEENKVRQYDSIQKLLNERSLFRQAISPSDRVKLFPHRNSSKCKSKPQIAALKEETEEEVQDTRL

Cc1cccc(C)c1-c1cc2nc(n1)NS(=O)(=O)c1cccc(c1)C(=O)N(Cc1ccn3nc(C(C)C)cc3n1)[C@H](CC1(C)CC1)CO2
ring closure, yield after HPLC ([1]; from Cc1cccc(C)c1-c1cc(OC[C@@H](CC2(C)CC2)NCc2ccn3nc(C(C)C)cc3n2)nc(NS(=O)(=O)c2cccc(C(=O)O)c2)n1, 9.91 mM, 25.0 °C, 16.5 h): 43%

Cc1cccc(C)c1-c1cc2nc(n1)NS(=O)(=O)c1cccc(c1)C(=O)N(Cc1cnc3oc(C(C)(C)COCc4ccccc4)cc3n1)[C@H](CC13CC(C1)C3)CO2
ring closure, yield after HPLC ([1]; from Cc1cccc(C)c1-c1cc(OC[C@@H](CC23CC(C2)C3)NCc2cnc3oc(C(C)(C)COCc4ccccc4)cc3n2)nc(NS(=O)(=O)c2cccc(C(=O)O)c2)n1, 31.3 mM, 16.0 h): 69%

Cc1cccc(C)c1-c1cc2nc(n1)NS(=O)(=O)c1cccc(c1)C(=O)N(Cc1cnc3oc(C4CC4)cc3n1)C(CCC1(C)CC1)CO2 (single isomer, unassigned; isomer 1)
ring closure, yield after HPLC ([1]; from Cc1cccc(C)c1-c1cc(OCC(CCC2(C)CC2)NCc2cnc3oc(C4CC4)cc3n2)nc(NS(=O)(=O)c2cccc(C(=O)O)c2)n1, 12.8 mM, 24.5 h): 48%

Cc1cccc(C)c1-c1cc2nc(n1)NS(=N)(=O)c1cccc(c1)C(=O)N(Cc1cnc3oc(C4CC4)cc3n1)[C@H](CC(C)(C)C)CO2 (single isomer, unassigned; isomer a)
ring closure, yield after HPLC ([1]; from 3-[[[4-[(2R)-2-[(6-Cyclopropylfuro[2,3-b]pyrazin-2-yl)methylamino]-4,4-dimethyl-pentoxy]-6-(2,6-dimethylphenyl)pyrimidin-2-yl]amino]sulfonimidoyl]benzoic acid (hydrochloride salt) (isomer A), 14.2 mM): 23%

Cc1cccc(C)c1-c1cc2nc(n1)NS(=O)(=O)c1cccc(c1)C(=O)N(Cc1cnc3cc(C(C)(C)C)n(C)c3n1)[C@H](C1CCCO1)CO2 (single isomer, unassigned; isomer a)
ring closure, yield after HPLC ([1]; from Cc1cccc(C)c1-c1cc(OC[C@H](NCc2cnc3cc(C(C)(C)C)n(C)c3n2)C2CCCO2)nc(NS(=O)(=O)c2cccc(C(=O)O)c2)n1, 13.2 mM, 25.0 °C, 20.0 h): 53%

Cc1cccc(C)c1-c1cc2nc(n1)NS(=O)(=O)c1cccc(c1)C(=O)N(Cc1cnc3cc(C(C)(C)C)n(C)c3n1)[C@H](C1CCCO1)CO2 (single isomer, unassigned; isomer b)
ring closure, yield after HPLC ([1]; from Cc1cccc(C)c1-c1cc(OC[C@H](NCc2cnc3cc(C(C)(C)C)n(C)c3n2)C2CCCO2)nc(NS(=O)(=O)c2cccc(C(=O)O)c2)n1, 15.5 mM, 25.0 °C, 20.0 h): 55%

Cc1cccc(C)c1-c1cc2nc(n1)NS(=O)(=O)c1cccc(c1)C(=O)N(Cc1cnc3oc(C4(C)CCC4)cc3n1)[C@H](CC1(C)CC1)CO2 [Compound I-143, (11R)-6-(2,6-Dimethylphenyl)-12-[[6-(1-methylcyclobutyl)furo[2,3-b]pyrazin-2-yl]methyl]-11-[(1-methylcyclopropyl)methyl]-2,2-dioxo-9-oxa-2λ^6-thia-3,5,12,19-tetrazatricyclo[12.3.1.14,8]nonadeca-1(18),4(19),5,7,14,16-hexaen-13-one]
ring closure, yield after HPLC ([1]; from Cc1cccc(C)c1-c1cc(OC[C@@H](CC2(C)CC2)NCc2cnc3oc(C4(C)CCC4)cc3n2)nc(NS(=O)(=O)c2cccc(C(=O)O)c2)n1, 44.8 mM, 16.0 h): 56% | Emax ([2]; 18-24 hours): > 60% | EC50 [2]: 3 to 30 µM

Cc1cccc(C)c1-c1cc2nc(n1)NS(=O)(=O)c1cccc(c1)C(=O)N(Cc1nc3cc(C4CC4)oc3cc1F)[C@H](CC1(C)CC1)CO2 [Compound I-197, (11R)-12-[(2-cyclopropyl-6-fluoro-furo[3,2-b]pyridin-5-yl)methyl]-6-(2,6-dimethylphenyl)-11-[(1-methylcyclopropyl)methyl]-2,2-dioxo-9-oxa-2λ^6-thia-3,5,12,19-tetrazatricyclo[12.3.1.14,8]nonadeca-1(18),4(19),5,7,14,16-hexaen-13-one]
ring closure, yield after HPLC ([1]; from Cc1cccc(C)c1-c1cc(OC[C@@H](CC2(C)CC2)NCc2nc3cc(C4CC4)oc3cc2F)nc(NS(=O)(=O)c2cccc(C(=O)O)c2)n1, 19.2 mM, 16.33 h): 62% | Emax ([2]; 18-24 hours): > 60% | EC50 [2]: 1 to 3 µM

Cc1cccc(C)c1-c1cc2nc(n1)NS(=O)(=O)c1cccc(c1)C(=O)N(Cc1cnc3c(n1)C(=O)N(C(C)C)C3)[C@H](CC1(C)CC1)CO2 [III-21, (11R)-6-(2,6-Dimethylphenyl)-12-[(6-isopropyl-5-oxo-7H-pyrrolo[3,4-b]pyrazin-3-yl)methyl]-11-[(1-methylcyclopropyl)methyl]-2,2-dioxo-9-oxa-2λ^6-thia-3,5,12,19-tetrazatricyclo[12.3.1.14,8]nonadeca-1(18),4(19),5,7,14,16-hexaen-13-one]
ring closure, yield after HPLC ([1]; from Cc1cccc(C)c1-c1cc(OC[C@@H](CC2(C)CC2)NCc2cnc3c(n2)C(=O)N(C(C)C)C3)nc(NS(=O)(=O)c2cccc(C(=O)O)c2)n1, 9.0 mM, 16.5 h): 31% | Emax ([2]; 18-24 hours): > 60% | EC50 [2]: 1 to 3 µM

Cc1cccc(C)c1-c1cc2nc(n1)NS(=O)(=O)c1cccc(c1)C(=O)N(Cc1cnc3sc(C4CC4)cc3n1)[C@H](CC13CC(C1)C3)CO2 [IV-42, (11R)-11-(1-bicyclo[1.1.1]pentanylmethyl)-12-[(6-cyclopropylthieno[2,3-b]pyrazin-2-yl)methyl]-6-(2,6-dimethylphenyl)-2,2-dioxo-9-oxa-2λ^6-thia-3,5,12,19-tetrazatricyclo[12.3.1.14,8]nonadeca-1(18),4(19),5,7,14,16-hexaen-13-one]
ring closure, yield after HPLC ([1]; from Cc1cccc(C)c1-c1cc(OC[C@@H](CC23CC(C2)C3)NCc2cnc3sc(C4CC4)cc3n2)nc(NS(=O)(=O)c2cccc(C(=O)O)c2)n1, 8.92 mM, 25.0 °C, 18.0 h): 54% | EC50 [2]: 1 to 3 µM | Emax [2]: > 60%

Cc1cccc(C)c1-c1cc2nc(n1)NS(=O)(=O)c1cccc(c1)C(=O)N(Cc1cnc3cc(C(C)(C)C)[nH]c3n1)[C@H](CC1(C)CC1)CO2 [IV-54, (11R)-12-[(6-tert-butyl-5H-pyrrolo[2,3-b]pyrazin-3-yl)methyl]-6-(2,6-dimethylphenyl)-11-[(1-methylcyclopropyl)methyl]-2,2-dioxo-9-oxa-2λ^6-thia-3,5,12,19-tetrazatricyclo[12.3.1.14,8]nonadeca-1(18),4(19),5,7,14,16-hexaen-13-one]
ring closure, yield after HPLC ([1]; from Cc1cccc(C)c1-c1cc(OC[C@@H](CC2(C)CC2)NCc2cnc3cc(C(C)(C)C)[nH]c3n2)nc(NS(=O)(=O)c2cccc(C(=O)O)c2)n1, 9.99 mM, 25.0 °C, 5.5 h): 44% | EC50 [2]: 3 to 30 µM | Emax [2]: > 60%

(5P,11R)-6-[2-(cyclopentylmethyl)-6-methylphenyl]-11-(2,2-dimethylpropyl)-7-methyl-12-{[5-methyl-6-(propan-2-yl)-5H-pyrrolo[2,3-b]pyrazin-3-yl]methyl}-9-oxa-2λ^6-thia-3,5,12,19-tetraazatricyclo[12.3.1.1∧{4,8}]nonadeca-1(17),4(19),5,7,14(18),15-hexaene-2,2,13-trione
ring closure, yield after HPLC ([1]; 9.74 mM): 45%

(5P,11R)-7-methyl-6-[2-methyl-6-(2-methylpropyl)phenyl]-12-({5-methyl-6-[1-(trifluoromethyl)cyclopropyl]-5H-pyrrolo[2,3-b]pyrazin-3-yl}methyl)-11-[(propan-2-yloxy)methyl]-9-oxa-2λ^6-thia-3,5,12,19-tetraazatricyclo[12.3.1.1∧{4,8}]nonadeca-1(18),4(19),5,7,14,16-hexaene-2,2,13-trione
ring closure, yield after HPLC ([1]; 13.9 mM, 25.0 °C): 65%

(5P,11R)-11-({bicyclo[1.1.1]pentan-1-yl}methyl)-12-({6-tert-butyl-5-methyl-5H-pyrrolo[2,3-b]pyrazin-3-yl}methyl)-7-methyl-6-[2-methyl-6-(2-methylpropyl)phenyl]-9-oxa-2λ^6-thia-3,5,12,19-tetraazatricyclo[12.3.1.1∧{4,8}]nonadeca-1(17),4(19),5,7,14(18),15-hexaene-2,2,13-trione
ring closure, yield after HPLC ([1]; 22.6 mM, 25.0 °C): 76%

(5P,11R)-12-({6-tert-butyl-5-methyl-5H-pyrrolo[2,3-b]pyrazin-3-yl}methyl)-11-(2,2-dimethylpropyl)-7-methyl-6-[2-methyl-6-(2-methylpropyl)phenyl]-9-oxa-2λ^6-thia-3,5,12,19-tetraazatricyclo[12.3.1.1∧{4,8}]nonadeca-1(17),4(19),5,7,14(18),15-hexaene-2,2,13-trione
ring closure, yield after HPLC ([1]; 14.0 mM): 61%

(6P,11S)-12-({6-tert-butyl-5-methyl-5H-pyrrolo[2,3-b]pyrazin-3-yl}methyl)-7-methyl-6-[2-methyl-6-(2-methylpropyl)phenyl]-11-[(trifluoromethoxy)methyl]-9-oxa-2λ^6-thia-3,5,12,19-tetraazatricyclo[12.3.1.1∧{4,8}]nonadeca-1(17),4,6,8(19),14(18),15-hexaene-2,2,13-trione
ring closure, yield after HPLC ([1]; 8.87 mM, 25.0 °C): 36%
